The values that follow come from patent publication US5457051A, “Enantioselective hydrolysis of ketoprofen esters by beauveria bassiana and enzymes derived therefrom” (Sepracor, Inc., priority 1993, dated 1995).

Starred links: 1 amine or outer side, 2 acyl side, 3 side chain; linkers in the order of their positions; H or OH if unused. Residues, ends and D or L forms follow the SMILES beside them. *: point of attachment. pNA = O=[N+]([O-])c1ccc(N*)cc1; Suc = O=C(CCC(=O)[*:2])[*:1]

Assay [1] deals with Beauveria ester hydrolase. Put plainly: Substrate specificity of the enzyme preparation (Table 9; lipase and protease substrates). Format: biochemical, Beauveria bassiana. The following applies: compound used as substrate. Here is the method: A one-mL (final volume) reaction mixture contained ketoprofen choline ester (6 mg), NaPi buffer (200 mM, pH 6.5), and 150 mg of whole cells or pellet, or 300 μL cell crude extract. The reaction was carried out at 30° C. in a shaker with a reciprocal speed of 169 rpm. Routine assays of the enzyme were performed by using p-nitrophenyl ketoprofen as a substrate at 30° C.
(§1) Although the enzyme hydrolyzes the water-soluble choline ester, it appears that the enzyme might be a lipase.

In assay [2] the test system is Beauveria ester hydrolase. Put plainly: Km from the activity of the preparation at different concentrations of substrate. In kind it is biochemical, Beauveria bassiana. The following applies: partially purified enzyme preparation.
The subject of assay [3] is Beauveria ester hydrolase. The following applies: at 40 mM acid; partially purified enzyme preparation.
In assay [4] the test system is Beauveria ester hydrolase. Kind of assay: Sensitivity of the enzyme to PMSF. Format: biochemical, Beauveria bassiana.
Text: as §1

Regarding `CCCCCCCCCCCCCCCC(=O)Oc1ccc([N+](=O)[O-])cc1` [p-nitrophenyl palmitate], the “Enzymic activity (n mole substrate hydrolyzed/min/mL enzyme)” value in assay [1] is on record as 7496 n mole substrate hydrolyzed/mi.

With `CC(C(=O)OCC[N+](C)(C)C)c1cccc(C(=O)c2ccccc2)c1` (racemic) [ketoprofen choline ester], the estimated km in assay [2] is listed as 4.96 mM.

On to `C[C@@H](C(=O)O)c1cccc(C(=O)c2ccccc2)c1` [acid product, R-ketoprofen], for which the “inhibition of the enzyme by reaction product” value in assay [3] is recorded as “approximately 45%”.

For the compound `CC(=O)Oc1ccc([N+](=O)[O-])cc1` [p-nitrophenyl acetate], in assay [1], the “Enzymic activity (n mole substrate hydrolyzed/min/mL enzyme)” value is 215 n mole substrate hydrolyzed/mi.

Turning to `C[C@H](NC(=O)CCC(=O)O)C(=O)N[C@@H](C)C(=O)N1CCC[C@H]1C(=O)N[C@@H](Cc1ccccc1)C(=O)Nc1ccc([N+](=O)[O-])cc1` [N-succinyl-ala-ala-pro-phe-p-nitroaniline] (Suc-AAPF-pNA), the “hydrolysis of the substance by the enzyme preparation (in words)” value in assay [1] was “does not hydrolyze”.

Consider `O=S(=O)(F)Cc1ccccc1` [PMSF, phenylmethylsulfonylfluoride], for which, in assay [4], the “sensitivity of the enzyme to the inhibitor (in words)” value is “sensitive”.
